Experimental data published in patent publication US20120122931A1, “INDOLE DERIVATIVE OR PHARMACEUTICALLY ACCEPTABLE SALT THEREOF” (KISSEI PHARMACEUTICAL CO., LTD., priority 2009, published 2012).

Molecular target: T1, rat EP1 receptor (Rattus norvegicus, UniProt P70597)
T1 construct: expressed in transfected cells; host or cells: COS-1 cells, transient transfection with Lipofectamine 2000
T1 sequence (P70597 1-405): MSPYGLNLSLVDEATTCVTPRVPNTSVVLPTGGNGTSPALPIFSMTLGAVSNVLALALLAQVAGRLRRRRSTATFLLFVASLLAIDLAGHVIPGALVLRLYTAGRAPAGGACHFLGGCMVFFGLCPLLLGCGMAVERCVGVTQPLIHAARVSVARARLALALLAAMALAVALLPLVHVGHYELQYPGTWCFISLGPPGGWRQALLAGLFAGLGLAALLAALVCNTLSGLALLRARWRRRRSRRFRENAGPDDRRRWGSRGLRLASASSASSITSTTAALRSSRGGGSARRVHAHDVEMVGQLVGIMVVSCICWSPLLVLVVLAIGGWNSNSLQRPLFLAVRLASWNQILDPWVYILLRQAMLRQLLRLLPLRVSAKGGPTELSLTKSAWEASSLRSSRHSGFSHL
Experiment: Test for confirmation of EP1 receptor antagonism: inhibition of prostaglandin E2-induced increase in intracellular calcium concentration (Method A or Method B)
Assay type: cell-based
Settings: Method A (Fluo-4 NW, FlexStation); rat EP1 receptor-expressing cells; prostaglandin E2 10 nM
Protocol: (1) Preparation of Rat EP1 Expression vector
Using Rat Kidney BD Marathon-Ready cDNA (Nippon Becton Dickinson Company, Ltd.) as a template, a forward primer shown in SEQ ID NO. 1, and a reverse primer shown in SEQ ID NO. 2, a first run of PCR was carried out using KOD-Plus-Ver 2.0 (Toyobo Co., Ltd.). Further, using this amplification product as a template, a forward primer shown in SEQ ID NO. 3, and a reverse primer shown in SEQ ID NO. 4, a second run of PCR was carried out in the same manner. The amplification product obtained by the second run of PCR was incorporated into a vector (pcDNA3.1 D/V5-His-TOPO (registered trademark), Invitrogen Japan K. K.). By a conventional method, the vector containing this amplification product was introduced to E. coli (One Shot TOP10 Competent Cells, Invitrogen Corporation) to transform. This transformed E. coli was cultured in an LB agar medium for one day. After the culture, colonies were selected and cultured in an LB liquid medium containing 50 μg/mL of ampicillin. After the culture, the vector was purified using a QIAprep Spin Miniprep Kit (Qiagen K. K.). The base sequence of the insertion site of this vector (SEQ ID NO. 5) was compared with the rat EP1 base sequence (Ptger1) registered as an accession number NM_013100 in well-known database (NCBI), and as a result, they all matched except for a single base. Further, the amino acid sequence translated by the base sequence completely matched the amino acid sequence of the rat EP1 receptor registered as an NCBI accession number NP_037232. Therefore, it was confirmed that the cloned gene sequence was a base sequence of the rat EP1 receptor and the obtained amino acid sequence was that of the rat EP1 receptor. The pcDNA3.1 D/V5-His-TOPO (registered trademark) to which the nucleic acid shown in SEQ ID NO. 5 had been inserted was taken as a rat EP1-expressing vector.
(2) Preparation of Rat EP1 Receptor-Expressing Cells
COS-1 cells (Dainippon Sumitomo Pharma Co., Ltd.) were cultured until it reached confluence in an incubator at 37° C. under a 5% CO2 gas condition, using a D-MEM liquid medium (high glucose and L-glutamine contained, Invitrogen Corporation) to which a penicillin-streptomycin solution (Invitrogen Corporation, final concentration: 100 U/mL as benzylpenicillin; 100 μg/mL as streptomycin) as an antibiotic, MEM nonessential amino acids (Invitrogen Corporation, final Concentration: 0.1 mM), and fetal calf serum (Sanko Junyaku Co., Ltd., final concentration: 10%) were added.
(2-2) COS-1 Cell Subculture
The cells that had reached confluence were stripped with 0.05% trypsin/0.53 mM EDTA 4Na (Invitrogen Japan K. K.) and resuspended in the above liquid medium. The resuspended cells were diluted and cultured in the above liquid medium at a spread ratio from 1:4 to 1:8.
(2-3) Preparation of Cells for Introduction of Rat EP1-Expressing Vector
The cells that had reached confluence were stripped with 0.05% trypsin/0.53 mM EDTA.4Na, and resuspended in a D-MEM liquid medium (high glucose and L-glutamine contained, Invitrogen Corporation) to which an MEM nonessential amino acid (final concentration: 0.1 mM) and fetal calf serum (final concentration: 10%) were added. In each well of a Poly D-lysine-coated 96-well microplate (BD BioCoat (registered trademark), Nippon Becton Dickinson Company, Ltd.), this resuspended cell suspension culture was prepared to be 5×10^4 cells/well in 100 μL of the liquid medium, and seeded thereon. After seeding, the cells were cultured in an incubator at 37° C. under a 5% CO2 gas condition. At a point when the cells for introduction of a rat EP1-expressing vector were adhered (about 2 hours after seeding), introduction of the rat EP1-expressing vector was carried out in the following order.
(2-4) Introduction of Rat EP1-Expressing Vector
For introduction of the rat EP1-expressing vector, Lipofectamine 2000 (Invitrogen Japan K. K.) was used. […]

Row | SMILES | IC50
1 | CCOc1ccc2c(Cc3cccc(C(=O)O)n3)c(-c3ccccc3)[nH]c2c1 [Example 4-34, 6-(6-ethoxy-2-phenyl-1H-indol-3-ylmethyl)pyridine-2-carboxylic acid] | 44 nM

Same assay, conditions: Method B (Calcium kit II Fluo 4, FDSS 7000); rat EP1 receptor-expressing cells; prostaglandin E2 10 nM

Row | SMILES | IC50
2 | CCOc1ccc2c(Cc3cccc(C(=O)O)n3)c(-c3ccsc3)[nH]c2c1 [Example 16-61, 6-(6-ethoxy-2-thiophen-3-yl-1H-indol-3-ylmethyl)pyridine-2-carboxylic acid] | 43 nM
3 | COc1cc2[nH]c(-c3ccsc3)c(Cc3cccc(C(=O)O)n3)c2cc1Cl [Example 16-29, 6-(5-chloro-6-methoxy-2-thiophen-3-yl-1H-indol-3-ylmethyl)pyridine-2-carboxylic acid] | 27 nM
4 | CCOc1cc2[nH]c(-c3ccsc3)c(Cc3cccc(C(=O)O)n3)c2cc1F [Example 16-79, 6-(6-ethoxy-5-fluoro-2-thiophen-3-yl-1H-indol-3-ylmethyl)pyridine-2-carboxylic acid] | 22 nM
5 | COc1cc2c(Cc3cccc(C(=O)O)n3)c(-c3ccccc3)[nH]c2cc1Cl [Example 16-23, 6-(6-chloro-5-methoxy-2-phenyl-1H-indol-3-ylmethyl)pyridine-2-carboxylic acid] | 34 nM
6 | COc1cc2[nH]c(C(C)(C)C)c(Cc3cccc(C(=O)O)n3)c2cc1Cl [Example 16-89, 6-(2-tert-butyl-5-chloro-6-methoxy-1H-indol-3-ylmethyl)pyridine-2-carboxylic acid] | 22 nM
7 | COc1ccc2c(Cc3cccc(C(=O)O)n3)c(-c3ccoc3)[nH]c2c1 [Example 11-10, 6-(2-furan-3-yl-6-methoxy-1H-indol-3-ylmethyl)pyridine-2-carboxylic acid] | 15 nM
8 | O=C(O)c1cccc(Cc2c(-c3ccccc3)[nH]c3cc(C4CC4)ccc23)n1 [Example 16-8, 6-(6-cyclopropyl-2-phenyl-1H-indol-3-ylmethyl)pyridine-2-carboxylic acid] | 32 nM
9 | COc1cc2c(Cc3cccc(C(=O)O)n3)c(-c3ccoc3)[nH]c2cc1Cl [Example 16-105, 6-(6-chloro-2-furan-3-yl-5-methoxy-1H-indol-3-ylmethyl)pyridine-2-carboxylic acid] | 26 nM
10 | COc1cc2[nH]c(-c3ccsc3)c(Cc3cccc(C(=O)O)n3)c2cc1C [Example 16-24, 6-(6-methoxy-5-methyl-2-thiophen-3-yl-1H-indol-3-ylmethyl)pyridine-2-carboxylic acid] | 22 nM
11 | COc1ccc2c(Cc3cccc(C(=O)O)n3)c(-c3cc(F)c(F)c(F)c3)[nH]c2c1 [Example 16-6, 6-[6-methoxy-2-(3,4,5-trifluorophenyl)-1H-indol-3-ylmethyl]pyridine-2-carboxylic acid] | 44 nM
12 | O=C(O)c1cccc(Cc2c(-c3ccsc3)[nH]c3cc(C4CC4)c(F)cc23)n1 [Example 16-75, 6-(6-cyclopropyl-5-fluoro-2-thiophen-3-yl-1H-indol-3-ylmethyl)pyridine-2-carboxylic acid] | 16 nM
13 | O=C(O)c1cccc(Cc2c(-c3ccccc3)[nH]c3cc(C(F)(F)F)c(F)cc23)n1 [Example 16-45] | 26 nM
14 | O=C(O)c1cccc(Cc2c(-c3ccccc3)[nH]c3cc(OC(F)F)ccc23)n1 [Example 16-73] | 23 nM
15 | COc1cccc(-c2[nH]c3cc(OC)ccc3c2Cc2cccc(C(=O)O)n2)c1 [Example 11-34, 6-[6-methoxy-2-(3-methoxyphenyl)-1H-indol-3-ylmethyl]pyridine-2-carboxylic acid] | 36 nM
16 | COc1ccc2c(Cc3cccc(C(=O)O)n3)c(-c3cccnc3)[nH]c2c1 [Example 11-11, 6-(6-methoxy-2-pyridin-3-yl-1H-indol-3-ylmethyl)pyridine-2-carboxylic acid] | 32 nM
17 | O=C(O)c1cccc(Cc2c(-c3ccsc3)[nH]c3cc(C4CC4)ccc23)n1 [Example 16-65, 6-(6-cyclopropyl-2-thiophen-3-yl-1H-indol-3-ylmethyl)pyridine-2-carboxylic acid] | 14 nM
